Assay results reported in ChEMBL document CHEMBL1137661, “Interaction study of the combined use of paroxetine and fosamprenavir-ritonavir in healthy subjects” (Antimicrob Agents Chemother, 2007).

Columns and labels:
[1] = test system: Homo sapiens; experiment: AUC (0 to 12 hrs) in human assessed as amprenavir levels at 700 mg, po bid for 10 days pretreated with paroxetin at 20 mg, po qd for 10 days followed by 16 days washout period then coadministered with paroxetin at 20 mg, po qd and ritonavir at 100 mg, po bid for 10 days; format: ADME, organism-based, Plasma; design: time < 12 hr, dose 700 mg, route oral; conditions: in vivo
[2] = test system: Homo sapiens; experiment: Half life in human assessed as amprenavir levels at 700 mg, po bid for 10 days pretreated with paroxetin at 20 mg, po qd for 10 days followed by 16 days washout period then coadministered with paroxetin at 20 mg, po qd and ritonavir at 100 mg, po bid for 10 days; format: ADME, organism-based; conditions: in vivo
[3] = AUC (0 to 24 hrs) in human at 20 mg, po qd for 10 days; format: ADME, organism-based; design: time < 24 hr, dose 20 mg, route oral; conditions: plasma
[4] = Cmax in human at 20 mg, po qd for 10 days; format: ADME, organism-based; design: dose 20 mg, route oral; conditions: in vivo
[5] = Half life in human at 20 mg, po qd for 10 days; format: ADME, organism-based; conditions: in vivo
[6] = Apparent oral clearance in human at 20 mg, po qd for 10 days; format: ADME, organism-based; conditions: in vivo
[7] = AUC (0 to 24 hrs) in human at 20 mg, po qd for 10 days followed by 16 days washout period and treated with 20 mg, po qd for 10 days coadministered with fosamprenavir at 700 mg, po bid and ritonavir at 100 mg, po bid; format: ADME, organism-based; design: dose 20 mg, time < 24 hr, route oral; conditions: plasma
[8] = Cmax in human at 20 mg, po qd for 10 days followed by 16 days washout period and treated with 20 mg, po qd for 10 days coadministered with fosamprenavir at 700 mg, po bid and ritonavir at 100 mg, po bid; format: ADME, organism-based; design: dose 20 mg, route oral; conditions: in vivo
[9] = Half life in human at 20 mg, po qd for 10 days followed by 16 days washout period and treated with 20 mg, po qd for 10 days coadministered with fosamprenavir at 700 mg, po bid and ritonavir at 100 mg, po bid; format: ADME, organism-based; conditions: in vivo
[10] = test system: Homo sapiens; experiment: Decrease in serotonin concentration in human platelets at 20 mg, po qd for 10 days relative to control; format: functional; design: scale not given: the % may be the effect or the level left
[11] = test system: Homo sapiens; experiment: Decrease in serotonin concentration in human platelets at 20 mg, po qd for 10 days followed by 16 days washout period and treated with 20 mg, po qd for 10 days coadministered with fosamprenavir at 700 mg, po bid and ritonavir at 100 mg, po bid relative to control; format: functional; design: scale not given: the % may be the effect or the level left
[12] = test system: Homo sapiens; experiment: Toxicity in human assessed as serious adverse events at 20 mg, po qd for 10 days; format: organism-based; conditions: in vivo, 240 h
[13] = test system: Homo sapiens; experiment: Toxicity in human assessed as serious adverse events at 20 mg, po qd for 10 days followed by 16 days washout period and treated with 20 mg, po qd for 10 days coadministered with fosamprenavir at 700 mg, po bid and ritonavir at 100 mg, po bid; format: organism-based; conditions: in vivo
[14] = Apparent volume of distribution in human; format: ADME, organism-based; conditions: in vivo, read-out: Vz
[15] = AUC (0 to 12 hrs) in human at 100 mg, po bid for 10 days pretreated with paroxetin at 20 mg, po qd for 10 days followed by 16 days washout period then coadministered with paroxetin at 20 mg, po qd and fosamprenavir at 700 mg, po bid for 10 days; format: ADME, organism-based; design: time < 12 hr, dose 100 mg, route oral; conditions: plasma
[16] = clinical; conditions: human, in vivo, po
Description: Half life in human at 100 mg, po bid for 10 days pretreated with paroxetin at 20 mg, po qd for 10 days followed by 16 days washout period then coadministered with paroxetin at 20 mg, po qd and fosamprenavir at 700 mg, po bid for 10 days

## CC(C)CN(C[C@@H](O)[C@H](Cc1ccccc1)NC(=O)O[C@H]1CCOC1)S(=O)(=O)c1ccc(N)cc1 [AMPRENAVIR]
[1]
  AUC: 44100 ng·h/mL
[2]
  t1/2: 11.5 h

## Fc1ccc([C@@H]2CCNC[C@H]2COc2ccc3c(c2)OCO3)cc1 [PAROXETINE]
[3]
  AUC at 24 h: 590 ng·h/mL
[4]
  Cmax: 34 ng/mL
[5]
  half-life: 21.1 h
[6]
  CL/F: 552 mL/min
[7]
  AUC at 24 h: 270 ng·h/mL
[8]
  Cmax: 17 ng/mL
[9]
  half-life: 15.9 h
[10]
  Activity: 87%
[11]
  Activity: 81%
[12]
  Activity: Non-toxic
[13]
  Activity: Non-toxic
[14]
  Vd: 8.7 L/kg

## CC(C)c1nc(CN(C)C(=O)N[C@H](C(=O)N[C@@H](Cc2ccccc2)C[C@H](O)[C@H](Cc2ccccc2)NC(=O)OCc2cncs2)C(C)C)cs1 [RITONAVIR]
[15]
  AUC at 12 h: 5100 ng·h/mL
[16]
  half-life: 4.1 h
